# Experimental data published in US20180289637A1, “SUBSTITUTED CYCLOHEXANONES” (CLEXIO BIOSCIENCES LTD., priority 2016, published 2018).
# What was measured:
# [1] = in vivo; cited from earlier work
# [2] = test system: SD male rats; assay: Forced Swim Test (rats), Example 12
# [3] = Stability of alpha-d2-(R/S)-ketamine in phosphate-buffered saline at various pH levels; format: physicochemical
# Description: Incubations of (d2) (R/S)-ketamine (e.g., 1 μM) with PBS (pH 2.0, 7.4 and 8.4) were carried out using a Tecan Liquid Handling System (Tecan), or equivalent, at 37±1° C. in 0.2-mL incubation mixtures (final volume) containing PBS, at the final concentrations indicated in a 96-well plate format. The test article was added to the incubation mixtures in water. […] Incubations were carried out in triplicate with an exception for zero-time samples (which were incubated in quadruplicate). The samples were centrifuged (e.g., 920×g for 10 min at 10° C.) and the supernatant fractions analyzed by LC-MS/MS. Non-deuterated (d0) (R/S)-ketamine was used as an internal standard. The amount of unchanged test article and formation of non-deuterated (d0) (R/S)-ketamine was monitored based on peak area ratio of the analyte/internal standard.
# [4] = test system: NMDA receptor; conditions: inhibition of MK-801 binding; cited from earlier work
# [5] = test system: C57Bl/6 strain mice; assay: Tail Suspension Test (mice), Example 13; conditions: 120 mg/kg oral gavage
# [6] = test system: SD male rats; assay: Forced Swim Test (rats), Example 14; format: in vivo
# Description: The compounds were prepared by a chemist and coded, so the researcher was blinded to the treatment.
# [7] = Oral Single Dose PK Study in Rats
# Description: Male SD rats, 3 per timepoint, alternative timepoints, were used. […] Plasma was sampled at 10 min, 30 min, 1 h, 2 h, 3 h, 4 h, 7 h, 12 h, 24 h, and 30 h. The PK of the parent compound (deuterated and non-deuterated), as well as norketamine (deuterated and non-deuterated), 6-OH-norketamine (deuterated and non-deuterated), and dehydronorketamine (deuterated and non-deuterated) were analyzed.
# [8] = In Vitro Liver Microsomal Stability Assay; conditions: 1 μM, 0.5 mg per mL liver microsomal protein, about 37° C.
# Description: Test articles were added for a final assay concentration of 1 μM and incubated at about 37° C. Reactions were started by addition of the cofactor, and were stopped at four designated time points (0, 15, 30 and 60 min) by the addition of an equal volume of stop reagent (e.g., acetonitrile containing an internal standard, 0.2 mL). Samples were then centrifuged at 920×g centrifugal force for 10 min at 10° C. to precipitate the proteins. Supernatants were analysed by LC/MS/MS.
# [9] = In vitro metabolism in human liver microsomes; conditions: 30 min, 10 μM, listed as d2 S-ketamine
# Description: (§1) Incubations were initiated by the addition of nicotinamine adenine dinucleotide phosphate (NADPH, 1 mM) and terminated by the addition of methanol. Samples were vortex mixed, stored on ice, and the samples were centrifuged at 1400×g for 5 minutes. Supernatants were removed from the microsome pellets and stored in new tubes at approximately −20° C. until analysis.
# (§2) Metabolites generated in microsome incubation samples were characterized by LC-MS/MS using a LTQ Orbitrap XL with electrospray ionization in positive ion mode. Semi-quantitation of the metabolites present in the samples was based on LC MS peak areas of the putative metabolites.
# [10] = In vitro metabolism in rat liver microsomes; conditions: 15 min, 10 μM, listed as d2 S-ketamine
# Description: as §1, §2
# [11] = male, SD, rat, plasma, po, 15 mg/kg
# [12] = male, SD, rat, plasma, po, 15 mg/kg, AUC0-t of Esketamine (deuterated and non-deuterated), 15 mg/kg p.o., rats
# [13] = male, SD, rat, plasma, po, 15 mg/kg, AUC0-t, 15 mg/kg p.o., male SD rats
# [14] = male, SD, rat, plasma, po, 60 mg/kg
# [15] = male, SD, rat, plasma, po, 60 mg/kg, AUC0-t of Esketamine (deuterated and non-deuterated), 60 mg/kg p.o., rats
# [16] = male, SD, rat, plasma, po, 60 mg/kg, AUC0-t, 60 mg/kg p.o., male SD rats
structure (smiles),measurement,setting,value
"CNC1(c2ccccc2Cl)CCCCC1=O (racemic) [Ketamine, ketamine, reference compound]",elimination half-life,[1],2 to 3 h
same,reduction in immobility time by manual counting,"[2]; 30 mg/kg i.p., 30 min before test",54%
"[2H]C1([2H])CCCC(NC)(c2ccccc2Cl)C1=O (racemic) [d2-ketamine, alpha-d2-(R/S)-ketamine]",Mean percent remaining (0 min),"[3]; PBS pH 2.0, 37±1° C.",100%
same,Mean percent remaining (30 min),"[3]; PBS pH 2.0, 37±1° C.",94.6%
same,Mean percent remaining (60 min),"[3]; PBS pH 2.0, 37±1° C.",98.8%
same,Mean percent remaining (120 min),"[3]; PBS pH 2.0, 37±1° C.",93.9%
same,Mean percent remaining (0 min),"[3]; PBS pH 7.4, 37±1° C.",100%
same,Mean percent remaining (30 min),"[3]; PBS pH 7.4, 37±1° C.",98.3%
same,Mean percent remaining (60 min),"[3]; PBS pH 7.4, 37±1° C.",99.0%
same,Mean percent remaining (120 min),"[3]; PBS pH 7.4, 37±1° C.",96.0%
same,Mean percent remaining (0 min),"[3]; PBS pH 8.4, 37±1° C.",100%
same,Mean percent remaining (30 min),"[3]; PBS pH 8.4, 37±1° C.",96.4%
same,Mean percent remaining (60 min),"[3]; PBS pH 8.4, 37±1° C.",99.6%
same,Mean percent remaining (120 min),"[3]; PBS pH 8.4, 37±1° C.",95.1%
"NC1(c2ccccc2Cl)CCCCC1=O (racemic) [norketamine, N-desmethylketamine]",elimination half-life,[1],4 h
N[C@]1(c2ccccc2Cl)CCCCC1=O [(S)-norketamine],affinity for the NMDA receptor relative to the (R)-enantiomer,[4],8 times
"CN[C@]1(c2ccccc2Cl)CCCCC1=O [Esketamine, S-ketamine, reference compound]",adverse clinical symptoms,[5],"adverse clinical symptoms of vocalization, ataxia and drowsiness"
same,mortality,[5]; 20 minutes after the oral gavage,One of the animals was found dead
same,reduction in immobility time,"[6]; 30 mg/kg, 30 min before the test (route printed as orally, i.p. in table)",60%
same,Dehydronorketamine as metabolite (in words),"[7]; 15 and 60 mg/kg p.o., rats",minor metabolite
same,Cmax,[7]; [11],200 ng/mL
same,Tmax,[7]; [11],30 min
same,AUC(0-t),[7]; [12],183 ng·h/mL
same,AUC(0-t),[7]; [13],183 ng·h/mL
same,Cmax,[7]; [14],165 ng/mL
same,AUC(0-t),[7]; [15],498 ng·h/mL
same,AUC(0-t),"[7]; male, SD, rat, plasma, po, 60 mg/kg, AUC0-t of Esketamine, value in brackets (24 hr time point excluded), 60 mg/kg p.o., rats",311 ng·h/mL
same,AUC(0-t),[7]; [16],498 ng·h/mL
same,AUC(0-t),"[7]; male, SD, rat, plasma, po, 60 mg/kg, AUC0-t, 24 hr time point excluded, 60 mg/kg p.o., 24 hr time point excluded (7 hr was BLQ)",311 ng·h/mL
"[2H]C1([2H])CCC[C@](NC)(c2ccccc2Cl)C1=O [Example 1, (2S)-2-(2-chlorophenyl)-6,6-dideuterio-2-[deuterio(methyl)amino]cyclohexanone, deuterium chloride]",adverse clinical symptoms,[5],"adverse clinical symptoms of vocalization, ataxia and drowsiness"
same,effect at 30 mg/kg (in words),[6]; 30 min before the test,less pronounced compared to the lower dose
same,reduction in immobility time,"[2]; 120 mg/kg p.o., 75-90 min after the treatment",~25%
same,antidepressant-like effect on immobility time (in words),"[2]; 60 or 120 mg/kg p.o., 75-90 min after the treatment",dose-response trend
same,increase in degradation half-life as compared to non-isotopically enriched ketamine,[8],18%
same,"% Peak Area, component S-ketamine (parent remaining)",[9],33.6%
same,"% Peak Area, component S-ketamine (parent remaining)",[10],2.6%
same,6-OH norketamine levels (in words),"[7]; 15 and 60 mg/kg p.o., rats",lower
same,Dehydronorketamine as metabolite (in words),"[7]; 15 and 60 mg/kg p.o., rats",minor metabolite
same,Norketamine levels as compared to esketamine (in words),"[7]; 15 and 60 mg/kg p.o., rats",higher
same,Cmax,[7]; [11],136 ng/mL
same,AUC(0-t),[7]; [12],114 ng·h/mL
same,AUC(0-t),[7]; [13],114 ng·h/mL
same,Cmax,[7]; [14],163 ng/mL
same,AUC(0-t),[7]; [15],268 ng·h/mL
same,AUC(0-t),[7]; [16],268 ng·h/mL
same,plasma exposure to the parent compound (in words),"[7]; single oral administration of 15 or 60 mg/kg, male SD rats, S-ketamine D2 vs S-ketamine",essentially unchanged
